target: 5-HT2B receptors (Homo sapiens, UniProt P41595); test: 5-HT2B functional assays at the PDSP; type: cell-based; details: among the 9 5-HT2B ligands
Sequence (P41595 whole entry): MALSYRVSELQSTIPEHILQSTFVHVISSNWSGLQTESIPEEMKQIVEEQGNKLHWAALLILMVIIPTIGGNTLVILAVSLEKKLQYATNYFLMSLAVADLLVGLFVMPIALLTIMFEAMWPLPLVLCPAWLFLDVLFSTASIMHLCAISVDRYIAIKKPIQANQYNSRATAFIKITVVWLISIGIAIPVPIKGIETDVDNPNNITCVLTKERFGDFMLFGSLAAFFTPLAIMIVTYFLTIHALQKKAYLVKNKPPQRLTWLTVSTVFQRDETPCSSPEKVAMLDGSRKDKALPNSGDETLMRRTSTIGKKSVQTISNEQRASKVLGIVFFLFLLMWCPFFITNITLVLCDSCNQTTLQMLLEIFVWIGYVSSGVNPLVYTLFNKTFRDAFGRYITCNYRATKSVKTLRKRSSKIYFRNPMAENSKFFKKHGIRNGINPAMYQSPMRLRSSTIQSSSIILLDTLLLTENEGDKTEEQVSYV

Row | SMILES | agonist activity in 5-HT2B functional assays
1 | CC[C@@H](CO)NC(=O)[C@@H]1C=C2c3cccc4[nH]cc(c34)C[C@H]2N(C)C1 [Compound 7, methylergometrine] | strong agonist activity

test system: 5-HT2B receptor; test: not given; details: cited from earlier work

Row | SMILES | activation of 5-HT2B receptors
2 | CCNC(C)Cc1cccc(C(F)(F)F)c1 (stereo not drawn) [Fenfluramine] | potently activate
3 | CC[C@@H](CO)NC(=O)[C@@H]1C=C2c3cccc4[nH]cc(c34)C[C@H]2N(C)C1 [Methylergonovine] | potently activate
4 | CCCN1C[C@H](CSC)C[C@@H]2c3cccc4[nH]cc(c34)C[C@H]21 [Pergolide] | potently activate
5 | CN1C[C@H](C(=O)N[C@]2(C)O[C@@]3(O)[C@@H]4CCCN4C(=O)[C@H](Cc4ccccc4)N3C2=O)C=C2c3cccc4[nH]cc(c34)C[C@H]21 [ergotamine] | potently activate
6 | CC(N)Cc1cccc(C(F)(F)F)c1 (stereo not drawn) [norfenfluramine] | potently activate

From publication PMC3438292 (Journal of medicinal chemistry, 2010)
